Patent US10828250B2, “Topical formulation” (LIMEWAY PHARMA DESIGN LIMITED, priority 2015, dated 2020)

Legend:
[1] = format: physicochemical
Excerpt: As described previously, diffusion coefficient-enhancing excipients (DC enhancers) for use in the present invention commonly comprise alcohol, acid or ester derivatives of C8-C22 hydrocarbons.
In the acid and alcohol series, FIG. 2, as carbon chain length increases, solubility in caprylyl methicone decreases to less than 0.1% w/w at C18, such that these higher carbon chain lengths may be considered unsuitable for use as the DC enhancer in the formulation of the present invention owing to low solubility-dissolution constraints. Conversely, lower carbon chain length acids and alcohols such as C8 and C10 alcohols and C8 and C10 acids may be considered to be far too soluble in hydrocarbyl methyl siloxanes including caprylyl methicone, such that their performance as diffusion coefficient-enhancing excipients would be adversely affected. Similarly, long chain (for instance C14-C16) isopropyl esters are far too soluble in hydrocarbyl methyl siloxanes such as caprylyl methicone to allow performance as DC enhancers. For both of these classes of DC enhancer, up to 50% DC enhancer would be required to be at or near saturation in the non-volatile residual phase. In contrast, the C12-C14 acids and C12 alcohol have appropriate solubility in caprylyl methicone.
Conversely, from C16-C22 solubility is too low to allow adequate performance. […]

[2] = saturated solubility of corticosteroids in liquid silicones and in propylene glycol:glycerol(:water) mixtures; format: physicochemical; settings: for saturated solubility in propylene glycol:glycerol mixtures: as glycerol is added to propylene glycol, FIG. 8; for saturated solubility in propylene glycol:glycerol:water mixtures: as water is added to propylene glycol:glycerol 70:30, FIG. 9; for saturated solubility in liquid silicones: range of liquid silicones including caprylyl methicone, FIG. 1
Experimental: Similarly, active solubility may be reduced in the non-volatile residual phase. […] As glycerol is added to propylene glycol the solubility of FP and MF decreases. […] As water is added to propylene glycol:glycerol 70:30 the solubility of FP and MF decreases. Water may be present in certain embodiments of the formulation or may be present in the residual phase due to uptake of transepidermal water. Although water is a highly volatile solvent, humectant glycols retain water depending upon ambient conditions.

Compound | amount to saturate caprylyl methicone (solubility) [1] [%] | amount to saturate propylene glycol (solubility) [1] [%] | saturated solubility in propylene glycol:glycerol mixtures [2] | saturated solubility in propylene glycol:glycerol:water mixtures [2] | saturated solubility in liquid silicones [2]
myrystyl alcohol [C14 alcohol] | 2.30 | 2.44 | – | – | –
CCC(=O)O[C@]1(C(=O)SCF)[C@H](C)C[C@H]2[C@@H]3C[C@H](F)C4=CC(=O)C=C[C@]4(C)[C@@]3(F)[C@@H](O)C[C@@]21C [fluticasone propionate] | – | – | decreases | decreases | appropriately low
C[C@@H]1C[C@H]2[C@@H]3CCC4=CC(=O)C=C[C@]4(C)[C@@]3(Cl)[C@@H](O)C[C@]2(C)[C@@]1(OC(=O)c1ccco1)C(=O)CCl [mometasone furoate] | – | – | decreases | decreases | appropriately low
